From PubChem BioAssay (NCI)
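A five-concentration, 48-hour dose response in 96-well plates underlies each endpoint, interpolated linearly between surrounding concentrations. GI50 = concentration required for 50% inhibition of growth. At the TGI there is no net growth.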

Legend:
Assay in all cases: inhibition of tumour cell growth, NCI panel, 48 h
[1] = tested on: UO-31 renal
[2] = tested on: UACC-62 melanoma
[3] = tested on: MALME-3M melanoma
[4] = tested on: SK-MEL-28 melanoma
[5] = tested on: MDA-MB-435
[6] = tested on: OVCAR-8 ovarian
[7] = tested on: NCI/ADR-RES ovarian
[8] = tested on: M14 melanoma

Compound	GI50 [1] [µM]	TGI [1] [µM]	GI50 [2] [µM]	TGI [2] [µM]	GI50 [3] [µM]	TGI [3] [µM]	GI50 [4] [µM]	TGI [4] [µM]	GI50 [5] [µM]	TGI [5] [µM]	GI50 [6] [µM]	TGI [6] [µM]	GI50 [7] [µM]	TGI [7] [µM]	GI50 [8] [µM]	TGI [8] [µM]
COc1ccc(COc2cc3oc(=O)c4cc(C(C)O)ccc4c3cc2OC)cc1 (centres undefined)	14.7	> 100	8.47	34	10.2	40.2	14.3	> 91.7	4.33	> 22.9	14.8	52.2	8.4	44.4	> 22.5	> 100
NC(=O)CC(N)c1nn[nH]n1 (centres undefined)	–	> 100	–	> 100	–	> 100	–	> 100	–	> 100	–	> 100	–	> 100	–	> 100
Fc1ccc2nc(-c3nc(-c4ccccc4)n4ccccc34)[nH]c2c1	1.75	5.15	1.96	4.96	2.06	4.33	2.13	5.51	2.59	8.94	1.87	4.1	2.23	6.01	3.83	14.1
COc1ccc2c(c1)C(=O)c1c-2c(=O)n(CCCN(C)C)c2cc(OC)c(OC)cc12	3.4	16.1	> 100	> 100	–	–	17.9	32	11.3	23.3	4.6	23	5.93	23.6	6.65	21.7
Cc1cc(O)c2c3c(ccc2c1)C(=O)c1c(O)cccc1C3=O	–	> 100	–	13.6	–	0.0846	–	> 100	–	0.341	–	> 100	–	> 100	–	> 26.2
c1ccc2c(CNCCN3CCNCC3)c3ccccc3c(CNCCN3CCNCC3)c2c1	> 100	> 100	21.1	44	11.8	30.2	42.8	> 100	11.7	27.2	36.9	> 100	> 100	> 100	22.8	60.4
CC(=O)N(O)c1ccc(/C=C/c2ccccc2)cc1	0.759	2.9	1.46	4.69	> 66.6	> 100	9.39	> 100	3.39	> 100	1.59	> 52.5	2.21	44.1	3.35	> 100
Cc1ccc(C2=Nc3ccccc3SC(c3cccc4c3OCO4)C2)cc1 (centres undefined)	–	27.3	–	41.9	–	56	–	32.9	–	–	–	65.3	–	–	–	34.9
CCn1ccnc1C(=O)/C=C/c1ccc(CC(=O)Nc2ccc(F)cc2)cc1	2.65	10.5	2.83	6.57	> 16.7	> 16.7	4.92	> 16.7	4.58	> 16.7	4.86	> 16.7	5.37	> 16.7	3.02	8.06
C=CC[N+]1(CC)CCN=C1CCCCCCCCCCCCCCCCC (centres undefined)	1.14	2.43	0.935	2.3	–	–	0.816	2.04	–	–	–	–	–	–	0.35	1.28
COc1ccc(-c2c3c(N)c4c(nc3nc3c2c(C)nn3-c2ccccc2)CCCC4)cc1	2.46	11.5	13.7	27.9	–	–	6.75	24.3	3.83	16.4	2.82	11.4	3.41	14.2	3.74	13
COc1cc2c(cc1NC(=O)C(Cl)Cl)-c1ccc(NC(=O)C(Cl)Cl)cc1C2	0.73	2.75	0.586	2.07	14	31.6	0.611	1.76	0.378	1.12	0.439	1.68	0.789	4.42	3.14	16.5
Cc1cc2c(c(=O)o1)C1=S(SC(c3ccccc3)=C1)S2 (centres undefined)	–	94.8	–	> 100	–	86.7	–	> 100	–	–	–	> 100	–	> 100	–	> 100
O=S(=O)(O)c1ccc2cc3nn(-c4ccc(/C=C/c5ccc(-n6nc7cc8ccc(S(=O)(=O)O)cc8cc7n6)cc5S(=O)(=O)O)c(S(=O)(=O)O)c4)nc3cc2c1	26.1	> 100	34.1	> 100	> 100	> 100	> 100	> 100	> 100	> 100	> 100	> 100	> 100	> 100	44.5	> 100
O=C1C(Nc2cccc(O)c2)=C(Sc2ccccc2)C(=O)N1Cc1ccccc1	4.98	18	5.3	18.9	1.74	9.97	11.8	26.1	11.1	27.4	11.9	26.9	11.5	31.9	5.35	19.5
COc1cc(/C=C/C(=O)O[C@H]2[C@H](O[C@@H]3O[C@@H](C)[C@H](O)[C@@H](O)[C@H]3O)[C@@H](O)[C@H](OCCc3ccc(O)c(O)c3)O[C@@H]2COC2OCC(O)(CO)C2O)ccc1O (some centres undefined)	> 100	> 100	> 100	> 100	–	–	> 100	> 100	17.3	35.2	–	–	> 100	> 100	> 100	> 100
CC1CCN(CCOc2ccc(CNc3ccc4nc(CCC5CCCCC5)[nH]c4c3)cc2)CC1	1.38	2.67	1.9	3.36	1.71	3.17	–	–	1.64	3.07	1.96	4.24	1.81	4.12	1.56	3.01
